“Also recorded” adds a separate entry of the source. Where two headings read alike, the source gives them in different places.
Columns and labels:
[1] = In vitro redox-cycling phenol red/horseradish peroxidase reporter assay; details: phenol red/HRP with DTT
Experimental: The in vitro redox-cycling capability of compounds was assessed by phenol red/horseradish peroxidase (HRP) assay by adaption of a previously described protocol. Briefly, stocks were prepared as follows: (1) DTT to a concentration of […] in PBS pH 7.4 buffer; (2) compound stocks in PBS pH 7.4 buffer to 3× the desired concentration by 1,000× dilution of DMSO stocks; (3) a stock of phenol red/HRP detection reagent containing 300 µg ml^−1 phenol red and 180 µg ml^−1 HRP enzyme in PBS pH 7.4 buffer; (4) a stock of 1 M NaOH in water; (5) a stock of 100 µM H2O2 in PBS prepared by addition of a 30% solution of H2O2 in water into 1,000 µl of PBS. Into each well of a 96-well clear flat-bottomed plate was then added 40 µl of compound stock in PBS followed by 40 µl of DTT stock, followed immediately by 40 µl of phenol red/HRP reagent. A positive control with 100 µM H2O2 added in place of compound was included. The plate was incubated in the dark at room temperature for 15 min. Following this, 20 µl of 1 M NaOH was added to each well to terminate the reaction. Absorbance was immediately measured at 610 nm (MiniMax i3x Imager, Molecular Devices). Absorbance of treated wells was normalized to control wells treated with PBS only (zero redox cycling).

[2] = tested on: AML cell line HL-60; assay: N-Acetyl cysteine cytotoxicity assay (trypan blue exclusion); type: cell-based; details: Homo sapiens, 96 h
Experimental: For assays involving cytotoxicity of β-lapachone derivatives with and without antioxidant N-acetyl cysteine, HL-60 cells were plated into 24-well plates at a concentration of 2.5 × 10^5 cells ml^−1 in 450 µl. To each well was then added 25 µl of drug diluted in PBS to obtain the correct in-plate drug concentration, and 25 µl of PBS or a stock of N-acetyl cysteine at 12 mM in PBS. DMSO was maintained at an in-plate concentration of 0.1%. After 96 h incubation, toxicity was assessed by counting of live cells using the trypan blue exclusion method with a Countess II Automated Cell Counter (ThermoFisher Scientific) according to the manufacturer’s instructions. Cell viability was determined by dividing the average live cell number of treated wells by the average live cell number for control wells treated with 0.1% DMSO. Viability for wells treated with N-acetyl cysteine was assessed by comparison with control wells treated with N-acetyl cysteine and 0.1% DMSO. IC50 values were calculated using GraphPad Prism 8 software.

[3] = target: T1, recombinant human 5-LO (Homo sapiens, UniProt P09917); assay: Cell-free activity assay for recombinant human 5-LO; type: biochemical
T1 construct: made in house; host or cells: Escherichia coli BL21
T1 sequence (P09917 1-674): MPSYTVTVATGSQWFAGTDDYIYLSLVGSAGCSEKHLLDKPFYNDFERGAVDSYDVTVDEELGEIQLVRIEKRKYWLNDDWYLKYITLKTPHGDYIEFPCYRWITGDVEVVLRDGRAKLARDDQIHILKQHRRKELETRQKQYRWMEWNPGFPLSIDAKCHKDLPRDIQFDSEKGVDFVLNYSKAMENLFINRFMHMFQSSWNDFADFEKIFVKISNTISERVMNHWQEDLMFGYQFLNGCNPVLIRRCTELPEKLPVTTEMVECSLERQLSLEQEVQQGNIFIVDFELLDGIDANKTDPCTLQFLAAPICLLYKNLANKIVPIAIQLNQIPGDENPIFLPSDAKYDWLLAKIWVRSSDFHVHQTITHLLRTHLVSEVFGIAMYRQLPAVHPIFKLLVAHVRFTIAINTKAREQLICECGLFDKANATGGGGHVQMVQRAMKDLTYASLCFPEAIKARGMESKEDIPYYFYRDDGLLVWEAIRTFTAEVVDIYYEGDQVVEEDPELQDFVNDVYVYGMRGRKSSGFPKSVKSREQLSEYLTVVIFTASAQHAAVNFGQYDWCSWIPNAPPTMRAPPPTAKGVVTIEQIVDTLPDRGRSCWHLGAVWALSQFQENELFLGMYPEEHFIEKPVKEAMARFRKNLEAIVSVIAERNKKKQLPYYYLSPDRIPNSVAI
Experimental: Escherichia coli (BL21) was transformed with pT3-5-LO plasmid, and recombinant 5-LO protein was expressed at 30 °C as described. Cells were lysed in 50 mM triethanolamine/HCl pH 8.0, 5 mM EDTA, 1 mM phenylmethanesulfonyl fluoride, soybean trypsin inhibitor (60 μg ml^−1) and lysozyme (1 mg ml^−1), homogenized by sonication (3 × 15 s) and centrifuged at 40,000g for 20 min at 4 °C. The 40,000g supernatant (S40) was applied to an ATP–agarose column to partially purify 5-LO as described. Aliquots of semipurified 5-LO (0.5 μg) were diluted with 1 ml ice-cold PBS containing 1 mM EDTA. Samples were preincubated with the test compound or vehicle (0.1% DMSO) with or without 1 mM DTT, as indicated. After 10 min at 4 °C, samples were prewarmed for 30 s at 37 °C, and 2 mM CaCl2 plus 20 μM arachidonic acid was added to start the formation of 5-LO products. After 10 min, the reaction was stopped by addition of 1 volume of ice-cold methanol, and the formed 5-LO products were analysed by reverse-phase HPLC as described. 5-LO products include the all-trans isomers of LTB4 (trLTB4 isomers) and 5(S)-hydroperoxy-6-trans-8,11,14-cis-eicosatetraenoic acid and its corresponding alcohol 5(S)-hydroxy-6-trans-8,11,14-cis-eicosatetraenoic acid.

[4] = tested on: ovine blood; assay: Methaemoglobin analysis in ovine blood; set-up: species or system sheep; details: for methaemoglobin formation: in vitro ovine blood model, 1 h incubation
Experimental: Defibrinated Oxoid sheep’s blood (ThermoScientific) was diluted to a 5% v/v suspension in PBS pH 7.4. In a 96-well microtitre plate, 150 µl of blood suspension was added to 50 µl of serially diluted compound in PBS containing a 4× stock of each compound of interest. Serial dilution of compounds from DMSO stocks into PBS was performed to achieve an in-plate DMSO concentration of 0.1%. PBS buffer alone was used as a negative control. The plate was incubated for the specified time at 37 °C. The plate was then centrifuged at 3,500 r.p.m. for 5 min. The supernatant was removed and cells lysed by resuspension in 100 µl of a solution of Triton-X-100 (1%) in PBS. Following this, 80 µl of lysed cell contents were transferred to a second microtitre plate for ultraviolet measurement. Ultraviolet absorbance was measured immediately at 630 nm (MiniMax i3x Imager, Molecular Devices). Methaemoglobin increase was determined by A630−A6300/A6300×100 , where A630 is the absorbance of the test well at 630 nm, and A6300 is the absorbance of the negative control at 630 nm.

[5] = with ROS quencher NAC (600 µM), read-out: IC50, toxicity to HL-60 with NAC
[6] = without NAC, read-out: IC50, toxicity to HL-60 without NAC
[7] = without DTT, read-out: IC50, 5-LO inhibition without DTT

CC1(C)CCC2=C(O1)c1ccccc1C(=O)C2=O [Compound 1, β-lapachone, reference compound]
concentration above which redox activity saturates the assay [1]: above 10 μM | IC50 [2, 5]: 1.18 ± 0.18 µM | IC50 [2, 6]: 0.47 ± 0.26 µM | IC50 [3, 7]: > 30 µM | lowest dose concentration with detectable methaemoglobin formation ([4]; after 1 h of incubation): 10 µM | methaemoglobin formation [4]: dose-dependent methaemoglobin formation

CC1(C)CCC2=C(O1)c1ccccc1C(O)(Cc1ccccc1)C2=O (stereo not drawn) [Compound 24, benzyl β-lapa-ketol]
in vitro redox activity ([1]; up to 25 μM): non-redox active; also recorded: no measurable redox activity | IC50 [2, 5]: 10.5 ± 0.9 µM | IC50 [2, 6]: 13.6 ± 1.3 µM | IC50 ([3]; with DTT (1 mM), read-out: IC50, 5-LO inhibition with DTT): 10.4 ± 4.1 µM | IC50 [3, 7]: 8 ± 2.5 µM | methaemoglobin formation [4]: did not occur

— paper PMC9252919, “Controlled masking and targeted release of redox-cycling ortho-quinones via a C–C bond-cleaving 1,6-elimination” (Nature Chemistry, 2022)
